According to patent publication US20090239846A1, “Novel Compounds” (Glaxo Group Limited, priority 2005, published 2009):
Counter-ions that a name gives are not always drawn. Like-named read-outs stand apart in the source and are kept apart here.

Key:
Recombinant human p38α = molecular target: T1, Recombinant human p38α (Homo sapiens, UniProt Q16539); test: Fluorescence anisotropy kinase binding assay (standard or low volume); conditions: for active in the assay (pIC50, p38α binding): 12 nM p38α, 5 nM fluorescent ligand
T1 construct: GST; made in house
T1 sequence (Q16539 whole entry): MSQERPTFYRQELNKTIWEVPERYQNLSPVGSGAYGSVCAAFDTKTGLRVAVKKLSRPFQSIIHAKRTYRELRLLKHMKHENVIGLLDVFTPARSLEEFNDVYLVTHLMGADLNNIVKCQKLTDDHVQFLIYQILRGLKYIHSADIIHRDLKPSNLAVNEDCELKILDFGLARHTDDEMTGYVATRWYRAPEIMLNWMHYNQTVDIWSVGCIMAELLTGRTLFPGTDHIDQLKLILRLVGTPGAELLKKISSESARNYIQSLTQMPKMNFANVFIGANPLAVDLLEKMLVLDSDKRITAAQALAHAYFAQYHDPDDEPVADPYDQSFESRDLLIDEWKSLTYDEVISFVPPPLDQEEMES
Text: (§1) The concentration of kinase enzyme should preferably be >2×Kf. The concentration of fluorescent ligand required will depend on the instrumentation used, and the fluorescent and physicochemical properties. The concentration used must be lower than the concentration of kinase enzyme, and preferably less than half the kinase enzyme concentration.
The fluorescent ligand is the following compound:
[drawing 329] • which is derived from 5-[2-(4-aminomethylphenyl)-5-pyridin-4-yl-1H-imidazol-4-yl]-2-chlorophenol and rhodamine green. Recombinant human p38α was expressed as a GST-tagged protein. To activate this protein, 3.5 μM unactivated p38α was incubated in 50 mM Tris-HCl pH 7.5, 0.1 mM EGTA, 0.1% 2-mercaptoethanol, 0.1 mM sodium vanadate, 10 mM MgAc, 0.1 mM ATP with 200 nM MBP-MKK6 DD at 30 degrees for 30 mins. Following activation p38α was re-purified and the activity assessed using a standard filter-binding assay. Protocol: All components are dissolved in buffer of composition 62.5 mM HEPES, pH 7.5, 1.25 mM CHAPS, 1 mM DTT, 12.5 mM MgCl2 with final concentrations of 12 nM p38α and 5 nM fluorescent ligand. 30 μl of this reaction mixture is added to wells containing 1 μl of various concentrations of test compound (0.28 nM-16.6 μM final) or DMSO vehicle (3% final) in NUNC 384 well black microtitre plate and equilibrated for 30-60 mins at room temperature. Fluorescence anisotropy is read in Molecular Devices Acquest (excitation 485 nm/emission 535 nm). Definitions: Ki=dissociation constant for inhibitor binding • Kf=dissociation constant for fluorescent ligand binding
as §1, with “2×Kf.” for “>2×Kf.”, “concentration. The fluorescent ligand is the following compound:” for “concentration.”
which is derived from 5-[2-(4-aminomethylphenyl)-5-pyridin-4-yl-1H-imidazol-4-yl]-2-chlorophenol and rhodamine green. Recombinant human p38α was expressed as a GST-tagged protein. To activate this protein, 3.5 μM unactivated p38α was incubated in 50 mM Tris-HCl pH 7.5, 0.1 mM EGTA, 0.1% 2-mercaptoethanol, 0.1 mM sodium vanadate, 10 mM MgAc, 0.1 mM ATP with 200 nM MBP-MKK6 DD at 30 degrees for 30 mins. Following activation p38α was re-purified and the activity assessed using a standard filter-binding assay. Protocol: All components are dissolved in buffer of composition 62.5 mM HEPES, pH 7.5, 1.25 mM CHAPS, 1 mM DTT, 12.5 mM MgCl2 with final concentrations of 12 nM p38α and 5 nM fluorescent ligand. […] of this reaction mixture is added to wells containing 0.1 μl of various concentrations of test compound (0.02 nM-25 μM final) or DMSO vehicle (1.7% final) in Greiner low volume 384 well black microtitre plate and equilibrated for 30-60 mins at room temperature. Fluorescence anisotropy is read in Molecular Devices Acquest (excitation 485 nm/emission 535 nm). Definitions: Ki dissociation constant for inhibitor binding • Kf=dissociation constant for fluorescent ligand binding It is noted that there are two assay formats shown above for the Fluorescence anisotropy kinase binding assay. The only difference between these two assays is the volume used and the plate type. […] The results described herein may have been performed in either assay format and are not differentiated as to which.

[1] = tested on: IL-8 production by human neutrophils; test: TNF-stimulated IL-8 production from human neutrophils; format: cell-based; conditions: Neutrophil
Description: TNF-Stimulated IL-8 Production from Human Neutrophils The effect of test compounds on TNF-stimulated IL8 production by human neutrophils is measured as follows. Neutrophils are prepared from blood obtained from consenting donors, using standard methods. Blood is collected in heparinized syringes and layered over histopaque (30 ml/20 ml). Following centrifugation, the red cell pellet is resuspended in PBS and purified over a dextran gradient. Red blood cells are lysed with water for 40 sec, remaining granulocytes collected by centrifugation and resuspended at 1.5×10̂6 cells/ml. Cells are added (0.5-1 ml) to 48 well plates already containing compound at 1000×final concentration in neat DMSO or 10% DMSO in RPMI1640 with 10% FBS. TNF (final concentration 100 ng/ml) is used as the stimulus. Cells incubated for approximately 20 hrs at 37° C., 5% CO2. Levels of IL-8 in the cell free supernatant are determined by sandwich ELISA, and inhibition relative to a control with DMPO but no compound is calculated.

[2] = bound, read-out: apparent pIC50 (converted)
[3] = bound, not more than 50% inhibition at 100 nM, read-out: IC50

Row | IC50 [1, 3] | SMILES | also measured
1 | > 100 nM | CN(C)CCNc1nc(-c2ccc(C(N)=O)cc2)c2c(n1)N(c1c(F)cccc1F)C(=O)NC2 [Example 103, 4-(8-(2,6-difluorophenyl)-2-{[2-(dimethylamino)ethyl]amino}-7-oxo-5,6,7,8-tetrahydropyrimido[4,5-d]pyrimidin-4-yl)benzamide trifluoroacetate] | IC50 (Recombinant human p38α; [2]): > 15800 nM
2 | > 100 nM | CNCCNc1nc(-c2cc(C(=O)NCC3CC3)ccc2C)c2c(n1)N(c1c(F)cccc1F)C(=O)NC2 [Example 5, N-(Cyclopropylmethyl)-3-(8-(2,6-difluorophenyl)-2-{[2-(methylamino)ethyl]amino}-7-oxo-5,6,7,8-tetrahydropyrimido[4,5-d]pyrimidin-4-yl)-4-methylbenzamide] | active in the assay (pIC50, p38α binding) (Recombinant human p38α): active
3 | > 100 nM | CN(C)CCNc1nc(-c2ccc(C(=O)Nc3ccccc3)cc2)c2c(n1)N(c1c(F)cccc1F)C(=O)NC2 [Example 99, 4-(8-(2,6-difluorophenyl)-2-{[2-(dimethylamino)ethyl]amino}-7-oxo-5,6,7,8-tetrahydropyrimido[4,5-d]-pyrimidin-4-yl)-N-phenylbenzamide trifluoroacetate] | IC50 (Recombinant human p38α; second end given as 'less than', read-out: pIC50, broad range of data upon multiple runs (converted)): ≥ 1260 nM
4 | > 100 nM | Cc1ccc(C(=O)NCC2CC2)cc1-c1nc(NC2CCNCC2)nc2c1CNC(=O)N2c1c(F)cccc1F [6(b), N-(Cyclopropylmethyl)-3-[8-(2,6-difluorophenyl)-7-oxo-2-(4-piperidinylamino)-5,6,7,8-tetrahydropyrimido[4,5-d]pyrimidin-4-yl]-4-methylbenzamide] | active in the assay (pIC50, p38α binding) (Recombinant human p38α): active
5 | > 100 nM | CN(C)CCNc1nc(-c2ccc(C(=O)Nc3ccc(F)cc3)cc2)c2c(n1)N(c1c(F)cccc1F)C(=O)NC2 [Example 100, 4-(8-(2,6-difluorophenyl)-2-{[2-(dimethylamino)ethyl]amino}-7-oxo-5,6,7,8-tetrahydropyrimido[4,5-d]pyrimidin-4-yl)-N-(4-fluorophenyl)benzamide trifluoroacetate] | IC50 (Recombinant human p38α; [2]): > 15800 nM
6 | > 100 nM | CN(C)CCNc1nc(-c2ccc(C(=O)N(C)C)cc2)c2c(n1)N(c1c(F)cccc1F)C(=O)NC2 [Example 101, 4-(8-(2,6-difluorophenyl)-2-{[2-(dimethylamino)ethyl]amino}-7-oxo-5,6,7,8-tetrahydropyrimido[4,5-d]pyrimidin-4-yl)-N,N-dimethylbenzamide trifluoroacetate] | IC50 (Recombinant human p38α; [2]): > 15800 nM
7 | > 100 nM | Cc1ccc(C(=O)NC(C)C)cc1-c1nc(N(C)CCCN(C)CCCN(C)C)nc2c1CNC(=O)N2c1c(F)cccc1F [Example 116, 3-{8-(2,6-difluorophenyl)-2-[{3-[[3-(dimethylamino)propyl]-(methyl)amino]propyl}(methyl)amino]-7-oxo-5,6,7,8-tetrahydropyrimido[4,5-d]pyrimidin-4-yl}-4-methyl-N-(1-methylethyl)benzamide] | –
8 | > 100 nM | CCc1ccc(C(N)=O)cc1-c1nc(NCCN(C)C)nc2c1CNC(=O)N2c1c(F)cccc1F [Example 146, 3-(8-(2,6-difluorophenyl)-2-{[2-(dimethylamino)ethyl]amino}-7-oxo-5,6,7,8-tetrahydropyrimido[4,5-d]pyrimidin-4-yl)-4-ethylbenzamide] | –
9 | – | Cc1ccc(C(=O)NC(C)C)cc1-c1nc(N2CCC(N3CCOCC3)CC2)nc2c1CNC(=O)N2c1c(F)cccc1F [Example 71, 3-{8-(2,6-difluorophenyl)-2-[4-(4-morpholinyl)-1-piperidinyl]-7-oxo-5,6,7,8-tetrahydropyrimido[4,5-d]pyrimidin-4-yl}-4-methyl-N-(1-methylethyl)benzamide] | IC50 ([1]; bound, screened at a different top concentration, read-out: IC50): > 1 nM
10 | > 100 nM | CNC(=O)c1ccc(-c2nc(NCCN(C)C)nc3c2CNC(=O)N3c2c(F)cccc2F)c(C)c1 [Example 109, 4-(8-(2,6-difluorophenyl)-2-{[2-(dimethylamino)ethyl]amino}-7-oxo-5,6,7,8-tetrahydropyrimido[4,5-d]pyrimidin-4-yl)-N,3-dimethylbenzamide trifluoroacetate] | –
11 | > 100 nM | Cc1ccc(C(=O)NC(C)C)cc1-c1nc(NCCCNC(C)(C)C)nc2c1CNC(=O)N2c1c(F)cccc1F [Example 50, 3-[8-(2,6-difluorophenyl)-2-({3-[(1,1-dimethylethyl)amino]propyl}amino)-7-oxo-5,6,7,8-tetrahydropyrimido[4,5-d]pyrimidin-4-yl]-4-methyl-N-(1-methylethyl)benzamide] | –
12 | > 100 nM | Cc1ccc(C(=O)NC(C)C)cc1-c1nc(NCCCNC(C)C)nc2c1CNC(=O)N2c1c(F)cccc1F [Example 49, 3-[8-(2,6-difluorophenyl)-2-({3-[(1-methylethyl)amino]propyl}amino)-7-oxo-5,6,7,8-tetrahydropyrimido[4,5-d]pyrimidin-4-yl]-4-methyl-N-(1-methylethyl)benzamide] | –
13 | > 100 nM | Cc1ccc(C(=O)NC(C)C)cc1-c1nc(NCCN2CCN(Cc3ccccc3)CC2)nc2c1CNC(=O)N2c1c(F)cccc1F [Example 197, 3-[8-(2,6-difluorophenyl)-7-oxo-2-({2-[4-(phenylmethyl)-1-piperazinyl]ethyl}amino)-5,6,7,8-tetrahydropyrimido[4,5-d]pyrimidin-4-yl]-4-methyl-N-(1-methylethyl)benzamide trifluoroacetate] | –
14 | – | Cc1c(F)cc(C(=O)Nc2ccc(F)cc2)cc1-c1nc(NCCN(C)C)nc2c1CNC(=O)N2c1c(F)cccc1F [Example 115, 3-(8-(2,6-difluorophenyl)-2-{[2-(dimethylamino)ethyl]amino}-7-oxo-5,6,7,8-tetrahydropyrimido[4,5-d]pyrimidin-4-yl)-5-fluoro-N-(4-fluorophenyl)-4-methylbenzamide] | IC50 ([1]; ends given as 'less than' / 'greater than', read-out: IC50, broad range of data upon multiple runs): 1 to 100 nM
15 | > 100 nM | CCCNC(=O)c1ccc(C)c(-c2nc(NCCCNC(C)(C)C)nc3c2CNC(=O)N3c2c(F)cccc2F)c1 [Example 65, 3-[8-(2,6-difluorophenyl)-2-({3-[(1,1-dimethylethyl)amino]propyl}amino)-7-oxo-5,6,7,8-tetrahydropyrimido[4,5-d]pyrimidin-4-yl]-4-methyl-N-propylbenzamide] | –
16 | > 100 nM | Cc1c(F)cc(C(=O)N(C)C)cc1-c1nc(NCCN(C)C)nc2c1CNC(=O)N2c1c(F)cccc1F [Example 113, 3-(8-(2,6-difluorophenyl)-2-{[2-(dimethylamino)ethyl]amino}-7-oxo-5,6,7,8-tetrahydropyrimido[4,5-d]pyrimidin-4-yl)-5-fluoro-N,N,4-trimethylbenzamide] | –
17 | > 100 nM | CN(C)CCNc1nc(-c2cccc(C(=O)N(C)C)c2)c2c(n1)N(c1c(F)cccc1F)C(=O)NC2 [Example 90, 3-(8-(2,6-difluorophenyl)-2-{[2-(dimethylamino)ethyl]amino}-7-oxo-5,6,7,8-tetrahydropyrimido[4,5-d]pyrimidin-4-yl)-N,N-dimethylbenzamide] | –
18 | > 100 nM | CCCNC(=O)c1ccc(C)c(-c2nc(NCCNC(C)C)nc3c2CNC(=O)N3c2c(F)cccc2F)c1 [Example 62, 3-[8-(2,6-difluorophenyl)-2-({2-[(1-methylethyl)amino]ethyl}amino)-7-oxo-5,6,7,8-tetrahydropyrimido[4,5-d]pyrimidin-4-yl]-4-methyl-N-propylbenzamide] | –
19 | > 100 nM | CCCNC(=O)c1ccc(C)c(-c2nc(NCCC(=O)O)nc3c2CNC(=O)N3c2c(F)cccc2F)c1 [Example 229, N-(8-(2,6-difluorophenyl)-4-{2-methyl-5-[(propylamino)carbonyl]phenyl}-7-oxo-5,6,7,8-tetrahydropyrimido[4,5-d]pyrimidin-2-yl)-β-alanine] | –
